Literature values in article PMC7489895 (Biochemical Journal, 2020).

What was measured:
human skeletal muscle = conditions: ref Ahn et al. [30]
MondoA = conditions: skeletal myoblasts, in response to insulin; ref Ahn et al. [30]
importin α = importin α (Mus musculus, UniProt P52293); conditions: read-out: KD, NLS - importin α

Molecule | effect on intramuscular lipid accumulation (human skeletal muscle) | effect on nuclear localization of MondoA (MondoA) | Kd (importin α) [µM]
COc1ccc(-c2csc(NC(=O)c3ccc(OCC(=O)N4CCOCC4)c(OC)c3)n2)cc1 [SBI-477] | inhibits intramuscular lipid accumulation | inhibits the nuclear localization of Mondo A | 
K^155RPAATKKAGQAKKKK^170 (KRPAATKKAGQAKKKK; NLS; UniProt P05221 155-170, looked up, fragment) [Nucleoplasmin] |  |  | 0.19 ± 0.02
P^126KKKRKV^132 [SV40] |  |  | 0.31 ± 0.15
R^617KCYEAGMTLGARKLKKL^634 |  |  | 5 ± 0.1
